Article PMC3759356 (Cancer cell, 2013)

Target: T1, BARD1 (Homo sapiens, UniProt Q99728)
T1 sequence (Q99728 568-777 limits assumed): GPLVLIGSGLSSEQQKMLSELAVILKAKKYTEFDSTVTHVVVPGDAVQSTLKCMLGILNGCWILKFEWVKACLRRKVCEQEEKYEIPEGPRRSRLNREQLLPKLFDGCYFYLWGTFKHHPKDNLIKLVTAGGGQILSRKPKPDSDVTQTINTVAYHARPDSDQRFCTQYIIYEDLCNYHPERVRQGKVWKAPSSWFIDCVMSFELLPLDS
Assay: ITC
Format: binding

Nc1ncnc2c1ncn2[C@@H]1O[C@H](COP(=O)(O)OP(=O)(O)OC[C@H]2OC(O)[C@H](O)[C@@H]2O)[C@@H](O)[C@H]1O (stereo partly shown) [ADP-ribose]
Kd: ~0.25 µM
